Laboratory results from patent EP0215357B1, “Pharmaceutical preparation for the treatment of hypertension” (HOECHST AKTIENGESELLSCHAFT, priority 1985, dated 1987).

Tested on: spontan hypertensive Ratten (Wistar-Kyoto)
Assay: Urine excretion over 5 hours in spontaneously hypertensive rats (metabolic cages)
Type: in vivo, Ratte
Conditions: mean ± spread
Experimental: 10 spontan hypertensive Ratten (Wistar-Kyoto) wurden instrumentiert und während der Versuche in Stoffwechselkäfigen gehalten. Ramipril (=A) (1 mg/kg) und Piretanid (=B) (1,2 und 16 mg/kg) werden in Tylose oral mit Magensonde verabreicht. Die Kontrollgruppe erhielt nur Tylose. Die ausgeschiedene Urinmenge nach 5 Stunden, die Natriumausscheidung nach 5 Stunden sowie der arterielle Mitteldruck wurden bestimmt. Tabelle 1

Row | SMILES | Urinmenge (1 mg/kg oral in Tylose) [µ1/100g.5h] | Urinmenge (2 mg/kg oral in Tylose) [µ1/100g.5h] | Urinmenge (16 mg/kg oral in Tylose) [µ1/100g.5h]
1 | CCOC(=O)[C@H](CCc1ccccc1)N[C@@H](C)C(=O)N1[C@H](C(=O)O)C[C@@H]2CCC[C@@H]21 [A, Ramipril] | 760±185 | – | –
2 | NS(=O)(=O)c1cc(C(=O)O)cc(N2CCCC2)c1Oc1ccccc1 [B, Piretanid] | 900±180 | 1470±140 | 3520±405
